For experiment [1], the system named is Amblyomma hebraeum or variegatum (nymphs). In words: Arena test in vitro against Amblyomma hebraeum or variegatum (nymphs). It counts as in vivo. The following applies: even up to a dilution of 3.2 μg/cm^2. The procedure: (§1) This method is carried out in titre plates having 6 wells with a cross-section of 5 cm each, using a computer-supported video system. Each well of the titre plate is lined with a circular filter paper or another suitable carrier material. The substance of formula I to be tested is dissolved in methanol, acetonitrile or another suitable solvent, with ultrasound treatment and heating being employed for poorly-soluble substances. In an amount of 1 to 100 μg/cm^2, the dissolved test substance is placed in the centre of the filter paper on a quadrant or circular area of ca. 2.4 cm^2 radius. 4 of the 6 wells are filled with different test substances or with the same test substance in different dilutions (e.g. 1, 3.2, 5, 10 and 20 μg/cm^2). The 5th well is treated with DEET (N,N-diethyl-m-toluamide) as standard substance. The 6th well is filled with the pure solvent and serves as a control. 60 to 100 larvae or 25 to 50 nymphs or 10 to 25 adults of the parasite to be tested, e.g. ticks, are added to each filter paper, and the system is covered with a pane of glass and positioned under a video camera. At intervals of 5 seconds, the video camera takes individual pictures of all 6 wells. For a qualitative evaluation, these images are observed in a time-lapse as a continuous film, optically following the movements of the parasites on the filter paper and comparing them with the movements in the control well no. 6 or with the standard in the 5th well. A qualitative observation is thus made as to whether the test parasites move evenly over the whole surface of the filter paper and ignore the test substance, or whether and over what period they avoid the treated zone, and what influence the dilution of the test substance has on the behaviour of the test parasites. In this way, neutral and repellent substances are determined. At the same time, the duration of activity of the test substance is determined and compared with that of the standard. […] This frequency is evaluated statistically and thus quantitatively by the Willcoxon method in a comparison with the control and with the standard. […]

Experiment [2] relates to Rhipicephalus sanguineus (nymphs). Put plainly: Arena test in vitro against Rhipicephalus sanguineus (nymphs). It counts as in vivo. The following applies: even up to a dilution of 3.2 μg/cm^2. The protocol: as §1
For experiment [3], the system named is Boophilus microplus Biarra (larvae). In words: Arena test in vitro against Boophilus microplus Biarra (larvae). The following applies: even up to a dilution of 3.2 μg/cm^2. It counts as in vivo. The procedure:
as §1

Experiment [4] concerns ticks. Put plainly: Arena test method for testing vermin-repellent substances. The experiment is classed as in vivo. The conditions noted are these: 1 to 100 μg/cm^2 on filter paper, video evaluation versus control and DEET. The procedure: Arena Test Method for Testing Vermin-repellent Substances
This method is carried out in titre plates having 6 wells with a cross-section of 5 cm each, using a computer-supported video system. Each well of the titre plate is lined with a circular filter paper or another suitable carrier material. The substance of formula I to be tested is dissolved in methanol, acetonitrile or another suitable solvent, with ultrasound treatment and heating being employed for poorly-soluble substances. In an amount of 1 to 100 μg/cm^2, the dissolved test substance is placed in the centre of the filter paper on a quadrant or circular area of ca. 2.4 cm^2 radius. 4 of the 6 wells are filled with different test substances or with the same test substance in different dilutions (e.g. 1, 3.2, 5, 10 and 20 μg/cm^2). The 5th well is treated with DEET (N,N-diethyl-m-toluamide) as standard substance. The 6th well is filled with the pure solvent and serves as a control. […] In this way, neutral and repellent substances are determined. At the same time, the duration of activity of the test substance is determined and compared with that of the standard. […] This frequency is evaluated statistically and thus quantitatively by the Willcoxon method in a comparison with the control and with the standard. […]

In experiment [5] the test system is vermin. The following applies: cited from earlier work.

Turning to `OC(c1ccccc1)C1CCCN1` (stereo not drawn) [Compound 1.31, 2-[(1-phenyl)(1-hydroxy)methyl]pyrrolidine], the “long-term activity against Amblyomma nymphs” value in experiment [1] is “Particularly marked long-term activity”. The “long-term activity against Rhipicephalus sanguineus nymphs” value in experiment [2] was “Particularly marked long-term activity”. Besides, the “long-term activity against Boophilus larvae” value in experiment [3] is “Particularly marked long-term activity”.

Regarding `OC(c1ccc(Cl)cc1)C1CCCN1` (stereo not drawn) [Compound 1.45, 2-[(1-[4-chorophenyl])(1-hydroxy)methyl]pyrrolidine], the “long-term activity against Amblyomma nymphs” value in experiment [1] was “Particularly marked long-term activity”. Moreover, in experiment [2], the “long-term activity against Rhipicephalus sanguineus nymphs” value was “Particularly marked long-term activity”. Further, the “long-term activity against Boophilus larvae” value in experiment [3] is reported as “Particularly marked long-term activity”. For the same compound, the “repellent activity in arena test” value in experiment [4] is recorded as “excellent activity”.

For `Cc1ccc(C(O)C2CCC(C)(C)N2)c(C)c1` (stereo not drawn) [Compound 1.55, 2-[(1-[2,4-dimethylphenyl])(1-hydroxy)methyl]-5,5-dimethyl-pyrrolidine], the “long-term activity against Amblyomma nymphs” value in experiment [1] is listed as “Particularly marked long-term activity”. The “long-term activity against Rhipicephalus sanguineus nymphs” value in experiment [2] was “Particularly marked long-term activity”. Further, the “long-term activity against Boophilus larvae” value in experiment [3] is given as “Particularly marked long-term activity”. In experiment [4], the “repellent activity in arena test” value is listed as “excellent activity”.

Take `CCN(CC)C(=O)c1cccc(C)c1` [DEET, N,N-diethyl-m-toluamide]: the “time after which it has to be reapplied (volatilizes rather rapidly)” value in experiment [5] is given as “ca. 2 hours”.

These data come from US6458826B2, “Composition for repelling and deterring pests” (Navartis Animal Health US, Inc., priority 1998, dated 2002).
